# Several values for one entry are separate records, joined by “and”; a condition that tells them apart may be missing. Equal values may be shown once.
# Legend:
# [1] = Stability in mouse liver microsomal preparations; format: in vitro ADME; details: liver microsomes, with and without 1 mM NADPH (not said which), read-out: Mouse Liver Microsomes t1/2
# Experimental: (§1) Relative stability of Example Compound Nos. 1 through 60 in mouse plasma and mouse liver microsomal preparations.
# (§2) Certain Example Compounds were each added to a final concentration of 1 μM to 1 mL of each of mouse plasma and mouse liver microsomal preparations (with and without 1 mM NADPH). Stability assays were run in duplicate and were sampled at 0, 5, 15, 30, 60 and 120 minutes as follows: one hundred microliter aliquots of samples were removed at the specified sampling times, and the reaction was quenched with 400 μL of acetonitrile.
# (§3) Samples were analyzed by HPLC-ESI-MS/MS by measuring the peak area of both the starting Example Compound and parent compound (i.e., either Parent Compound A or Parent Compound B) that were created by removal of the Prodrug Moiety (as defined in Section 6 herein).
# [2] = Stability assessment / semi-quantitative hygroscopicity in a relative humidity (RH) chamber; format: physicochemical; details: solid in RH chamber; morphology and parent:prodrug composition
# Experimental: “ND” in Table 2 refers to “No Data”. Purity was determined by HPLC. Melting point was determined by differential scanning calorimetry (“DSC”), and semi-quantitative hygroscopicity was determined in a relative humidity (“RH”) chamber.
# [3] = tested on: HT1080 human fibrosarcoma cancer cells; test: Anti-tumor activity in HT1080 human fibrosarcoma xenograft with twice daily dosing; format: in vivo; details: for MTV increase / tumor growth inhibition relative to vehicle: 6 mg/kg twice daily for 8 days; for MTV decrease / tumor regression: 12 mg/kg twice daily for 8 days
# Method in brief: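 Female nude mice (Crl:NU-Fox1^nu) bearing s.c. flank tumors from 1 million HT1080 cells, randomized into cohorts of ten at median tumor volumes about 82–209 mm^3. Dosing twice daily for 7 days; tumor volumes and body weights tracked from Day 1 to Days 15–22.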
# [4] = Experiment 1: hepatic portal vein samples of rats after oral Example Compound 35; format: in vivo, female Sprague-Dawley rats
# Excerpt: It is believed that Example Compound 35 metabolizes in vivo into Parent Compound A (i.e., it is believed that Example Compound 35 is a prodrug of Parent Compound A). The objective of this study was to determine the concentration of Example Compound 35 and Parent Compound A in hepatic portal vein samples of female Sprague-Dawley rats following oral administration of only Example Compound 35, and to quantify the extent of transport into hepatic portal circulation, if any, of Example Compound 35. A second objective was to determine the relative bioavailability of Parent Compound A in the portal vein following oral administration of Example Compound 35.
# Experiment 1. Three female Sprague Dawley rats (200-215 g, Harlan Laboratories, Indianapolis, Ind.) with cannulae implanted surgically in the portal vein for blood sampling were used in this study. Example Compound 35, formulated in 50 mM Glycine pH 3.0 with 0.5% HPMC and 0.05% Tween-80, was administered by oral gavage (PO) at a dose of 20 mg/kg in a volume of 2 mL/kg. This dose is the molar equivalent of a 13.5 mg/kg dose of Parent Compound A. Portal blood samples were collected through the portal vein cannula from each animal at 0.25, 0.5, 1, 2, 4, and 8 hours following administration of compound. Samples were split into two fractions and one was supplemented with citrate buffer (final concentration 100 mM, pH 3.0) to stabilize Example Compound 35 and stop conversion of Example Compound 35 to Parent Compound A ex vivo during analysis. Samples were then processed to generate plasma and analyzed for Example Compound 35 by LC-MS/MS. Plasma derived from the second aliquot of blood was analyzed for Parent Compound A.
# Pharmacokinetic parameters estimated for Parent Compound A included the maximum observed drug concentration (Cmax), time of maximum observed drug concentration (Tmax), apparent terminal half-life (t1/2), area under the concentration-time curve from time zero to 8 hours postdose (AUC(0-8)), and area under the concentration-time curve extrapolated to infinity (AUC(0-inf)). The bioavailability (% F) of Parent Compound A in portal vein samples relative to IV administration was also estimated.
# Plasma samples were analyzed for Example Compound 35 or Parent Compound A concentration using a LC-MS/MS method. All sample runs met standard acceptance criteria for discovery purposes, and were based on a standard curve containing at least 7 points. At least half of quality control samples at each of the three concentrations tested, and two thirds of the entire quality control sample pool, were within 15% of their theoretical value. The r^2 value for each standard curve was ≧0.99. The quantitation range for the Example Compound 35 and Parent Compound A assays was 1 to 100 ng/mL and 5 to 2,500 ng/mL, respectively, using a 0.05 mL sample volume.
# The data were entered into the PK software package WinNonlin® version 5.1.1. A complete data check was conducted to verify the accuracy of data entry.
# Pharmacokinetic parameters were estimated on median plasma concentrations using extravascular input (PO). Nominal collection times after administration of compound were used for PK analyses. The use of a non-compartmental model provided an adequate fit of the data. Pharmacokinetic parameters estimated for Parent Compound A included the maximum observed drug concentration (Cmax), time of maximum observed drug concentration (Tmax), apparent terminal half-life (t1/2), apparent volume of distribution (Vz obs), apparent clearance (C1 obs), area under the concentration-time curve from time zero to 8 hours postdose of Example Compound 35 […], and area under the concentration-time curve extrapolated to infinity (AUC(0-inf)). Example Compound 35 was detected in only one 0.25 hour hepatic portal vein sample at 1.29 ng/mL. Any Example Compound 35 present in all of the other samples was below the quantitation limit of 1 ng/mL and pharmacokinetic parameters were not determined for those samples. […]
# [5] = Stability in mouse plasma; format: in vitro ADME; details: read-out: Mouse Plasma t1/2
# Experimental: as §1, §2, §3
# [6] = female rats, orally at 20 mg/kg
compound,measurement,setting,value
"O=C(NCc1ccc[n+](COC(=O)c2ccccc2)c1)Nc1ccc(OCCc2ccccc2-c2ccccc2)cc1 [Example 35, 1-[(Benzoyloxy)methyl]-3-{[({4-[2-(biphenyl-2-yl)ethoxy]phenyl}carbamoyl)amino]methyl} pyridinium]",half-life at 1 µM,[1],< 5 min
same,Stability at 40° C. and 75% RH,[2],"No change in morphology stopped at 13 days, only prodrug observed"
same,Stability at 60° C. and 75% RH,[2],"Deliquesced at 7 days, approx 30:70 parent to prodrug observed"
same,MTV increase,[3]; Day 9,31%
same,tumor growth inhibition relative to vehicle,[3]; Day 9,87%
same,MTV increase,[3]; Day 21,2245%
same,tumor growth inhibition relative to vehicle,[3]; Day 21,78%
same,MTV decrease,[3]; Day 9,81%
same,tumor regression,[3]; Day 9,80%
same,MTV decrease,[3]; Day 21,33%
same,tumor regression,[3]; Day 21,33%
same,animals with no detectable tumors by the end of the study,"[3]; Example Compound 35 study, 12 mg/kg, cohort of ten",Four
same,animals euthanized,"[3]; Example Compound 35 study, 6 and 12 mg/kg",No animals
same,anti-tumor activity in the HT1080 xenograft model (summary statement),"[3]; administered orally, twice daily, all doses tested",significant anti-tumor activity
same,maximal reduction in median body weight,"[3]; over the course of the study, all doses tested, orally twice daily",< 15 % of the initial weight
same,Tolerability,"[3]; xenograft mice, all doses tested, orally twice daily",well tolerated
same,Conversion to Parent Compound A following oral administration,[4]; [6],rapidly converted
same,Transport of Example Compound 35 into the hepatic portal vein,[4]; [6],not significantly transported
same,concentration at 1 h,"[4]; female, Sprague-Dawley, rat, plasma (hepatic portal vein), po, 20 mg/kg, portal vein, 1 hr after oral Example Compound 35 20 mg/kg, individual rats, * = below the quantitation limit of 1 ng/mL, read-out: [Ex. Cmp. 35]",0.24 ng/mL
same,concentration at 2 h,"[4]; female, Sprague-Dawley, rat, plasma (hepatic portal vein), po, 20 mg/kg, portal vein, 2 hr after oral Example Compound 35 20 mg/kg, individual rats, * = below the quantitation limit of 1 ng/mL, read-out: [Ex. Cmp. 35]",0.15 ng/mL
same,concentration at 4 h,"[4]; female, Sprague-Dawley, rat, plasma (hepatic portal vein), po, 20 mg/kg, portal vein, 4 hr after oral Example Compound 35 20 mg/kg, individual rats, * = below the quantitation limit of 1 ng/mL, read-out: [Ex. Cmp. 35]",0.13 ng/mL
same,Example Compound 35 present in all of the other portal vein samples,"[4]; oral 20 mg/kg, all samples other than one 0.25 hour sample, quantitation limit",< 1 ng/mL
same,[Ex. Cmp. 35],"[4]; portal vein, 0.25 hr after oral Example Compound 35 20 mg/kg, individual rats, * = below the quantitation limit of 1 ng/mL, 20 mg/kg",1.29 ng/mL
same,[Ex. Cmp. 35],"[4]; portal vein, 0.25 hr after oral Example Compound 35 20 mg/kg, individual rats, * = below the quantitation limit of 1 ng/mL, listed as Ex. Cmp. 35, 20 mg/kg",0.38* ng/mL and 1.3 ng/mL and 0.75* ng/mL
same,[Ex. Cmp. 35],"[4]; portal vein, 0.5 hr after oral Example Compound 35 20 mg/kg, individual rats, * = below the quantitation limit of 1 ng/mL, listed as Ex. Cmp. 35, 20 mg/kg",0.8* ng/mL and 0.32* ng/mL and 0.4* ng/mL
same,[Ex. Cmp. 35],"[4]; portal vein, 1 hr after oral Example Compound 35 20 mg/kg, individual rats, * = below the quantitation limit of 1 ng/mL, listed as Ex. Cmp. 35, 20 mg/kg",0.38* ng/mL and 0.29* ng/mL
same,[Ex. Cmp. 35],"[4]; portal vein, 2 hr after oral Example Compound 35 20 mg/kg, individual rats, * = below the quantitation limit of 1 ng/mL, listed as Ex. Cmp. 35, 20 mg/kg",0.3* ng/mL and No Peak
same,[Ex. Cmp. 35],"[4]; portal vein, 4 hr after oral Example Compound 35 20 mg/kg, individual rats, * = below the quantitation limit of 1 ng/mL, listed as Ex. Cmp. 35, 20 mg/kg",No Peak and 0.13* ng/mL
same,[Ex. Cmp. 35],"[4]; portal vein, 8 hr after oral Example Compound 35 20 mg/kg, individual rats, * = below the quantitation limit of 1 ng/mL, listed as Ex. Cmp. 35, 20 mg/kg",No Peak and 0.16* ng/mL and 0.07* ng/mL
same,half-life at 1 µM,[5],1.29 h

# — US20150344426A1, “COMPOUNDS AND THERAPEUTIC USES THEREOF” (ALZHEIMER'S INSTITUTE OF AMERICA, INC., priority 2012, published 2015)
